In patent publication US9243037B2, “Gramicidin a mutants that function as antibiotics with improved solubility and reduced toxicity” (Trustees of Boston College, priority 2011, dated 2016):
“Also recorded” adds a separate entry of the source. Like-named read-outs stand apart in the source and are kept apart here.

Tests used:
[1] = system: Streptococcus pyogenes (ATCC 19615); conditions: for MIC relative to wild-type Gramicidin A: S. Pyogenes
[2] = Peptide binding onto membranes (Trp fluorescence); conditions: negatively charged POPC/POPG vesicles; in words
[3] = K+ release from liposomes, lipid not specified; type: biochemical; conditions: in words
Procedure: With the D-Lys residues incorporated towards the C-terminus, the gA peptide analogs described herein display amphipathic sequences. Since many amphipathic peptides are known to cause membrane damage through a detergent-like mechanism instead of forming specific channels,[19] it was further examined whether it is the case with the gA peptide analogs provided herein. Toward this end, the ion selectivity of gA-3, 4, and 5 was assessed by using liposomes encapsulating K+ and Tb3+ respectively. […] The wild type like channel structure of the D-Lys mutants is further supported by the fact that gA-5 and gA-WT share similar signatures in their circular dichroism spectra (FIG. 11). This exclusive leakage of monovalent cations presents a great advantage of the gA analog peptides described herein in comparison to the majority of AMPs, which often cause catastrophic membrane collapse to release all bacterial cellular content, leading to potential complications of over-stimulated immune response.
The K+ leakage from liposomes was determined by a potassium ion selective electrode (K-ISE, Cole-Parmer, Vernon Hills, Ill.). The electrode was calibrated each day before experiments. A liposome solution in Buffer A (2 mL, 500 μM POPC or POPC/POPG⊃10 mM HEPES, 150 mM KCl, pH 7.0) was stirred at constant speed and peptide at various concentration (1 μL in DMSO) was added accumulatively. Three minutes after each peptide addition, the K+ concentration was measured and reported as the K-ISE potential. At the end of each experiment, gA-WT stock (1 μL, 1 mM) was added to induce 100% K+ leakage. The potential reported by the K-ISE was plotted against peptide concentration after the background noise (caused by DMSO addition) was subtracted and normalized to 0-100%.

[4] = system: Bacillus subtilis (ATCC 663); conditions: for MIC relative to wild-type Gramicidin A: B. subtilis
[5] = system: human red blood cells (hRBCs); assay: K+ leakage from hRBCs (flame atomic emission); type: cell-based
Procedure: The rest of supernatant (1.2 mL) from each sample prepared as described in the hemoglobin leakage assay was transferred into a new sterile eppendorf tube and subject to the K+ concentration measurement using a flame-atomic emission spectrometer (λem=766.5 nm, Perkin Elmer Atomic absorption Spectrometer 3100, acetylene/air flame). Three readings were taken for each sample and averaged as final results. The fraction of K+ leakage from hRBCs was calculated as percentage K+ leaked=100·(I776.5,peptide−I776.5,DMSO)/(I776.5,complete lysis−I776.5,DMSO).

[6] = system: Staphylococcus aureus (ATCC 6538); conditions: for MIC relative to wild-type Gramicidin A: S. Aureus
[7] = physchem; type: physicochemical
Procedure: Peptide solubility in 10 mM HEPES buffer with 1% DMSO was measured by monitoring tryptophan absorbance. A concentrated (6.0-8.0 mM) peptide stock solution in DMSO was diluted 100 times (5 μL of the stock into 500 jtl of 10 mM HEPES buffer, pH 7.0). The mixture was sonicated for 30 mins and then subject to centrifugation (14,000 rpm, 10 mins) to remove possible precipitate. The supernatant (400 μL) was transferred to a quartz cuvette and the peptide concentration was determined by tryptophan absorbance at 280 nm (ε=22760 M−1 cm-1). The UV/Vis spectra of the supernatant can be seen in FIG. 1 and FIG. 5.

[8] = Tb3+ leakage from liposomes, lipid not specified; type: biochemical; conditions: at peptide concentrations causing complete K+ release; in words
[9] = cited from earlier work; for Sat. Conc, Lys series: Trp absorbance @ 280 nm, 10 mM PBS, pH 7.0, 1% DMSO, values taken from ref
[10] = Peptide binding onto membranes (Trp fluorescence)
[11] = system: human red blood cells (hRBCs); assay: Haemoglobin release from human red blood cells; type: cell-based
Procedure: Fresh human red blood cells (hRBCs) were centrifuged at 3500 rpm and washed with PBS buffer until the supernatant was clear. The hRBCs were then resuspended and diluted to a final concentration of 1% (v/v) in PBS and used immediately. 15 μL of serial dilution (2-fold) of peptides in DMSO or DMSO alone as a negative control were added to 1.5 mL of hRBCs in PBS. The resulting mixture was gently shaken to mix well and incubated at 37° C. for 1 hr, followed by centrifugation at 3500 rpm for 10 min using tabletop centrifuge. Aliquots (50 μL) of the supernatant (in triplicates) were transferred into a sterile 96-well plate containing 50 μL of H2O in each well. Release of hemoglobin was monitored at 415 nm using a microtiter plate reader. Percentage hemolysis was calculated using percentage hemolysis=100·(A415, peptide-A415,DMSO)/(A415, complete hemolysis-A415, DMSO), where complete hemolysis is achieved by mixing hRBCs with 1% TritonX-100.

[12] = system: HeLa; assay: MTT toxicity assay; type: cell-based, human; conditions: HeLa; in words
Procedure: (§1) Toxicity of gA-WT and gA-5 was tested against two human cancer cell lines, HeLa and MCF-7 (gifts from Professor Eranthie Weerapana at Boston College) by using the MTT assay as described in the protocol provided by Invitrogen.[5] HeLa cells (in DMEM high glucose media with 10% FBS, 1% Pen/Strep, 37° C., 5% CO2) and MCF-7 cells (in RPMI media with 10% FBS and 1% Pen/Strep, 37° C., 5% CO2) were grown to about 80% confluent before removed from the surface of a 20 cm petri-dish with […] with EDTA (3-5 mins, 37° C., 5% CO2). Cells were pelleted (3,500 rpm, 5 mins at 4° C.), and plated at 15,000 cells per well (100 μL per well), then incubated for 48 hrs before peptide addition.
(§2) Stock solutions of gA in DMSO with varied concentrations were prepared so that for each peptide concentration the total volume of DMSO addition was kept constant at 1% (v/v). For each peptide concentration, samples were set up as four replicates. Control wells were loaded with 1 μL of DMSO. After overnight incubation, cells were washed once with PBS before being incubated for 4 hrs with 110 μL of 12 mM 3-(4,5-Dimethylthiazol-2-yl)-2,5-diphenyltetrazolium bromide (MTT) dissolved in RPMI media. The MTT assay was quenched with 100 μL of 10% SDS in 0.01 M HCl and allowed to incubate overnight before absorbance at 570 nm was recorded. Wells were averaged and standard deviations determined for each peptide concentration. Data were normalized to the DMSO control to give % cell survival (see FIG. 3).

[13] = system: MCF-7; assay: MTT toxicity assay; type: cell-based, human; conditions: MCF-7; in words
Procedure: as §1, §2

[14] = Table 2, standard micro-dilution

| Structure (SMILES) | MICs S. Pyogenes ([1]; ATCC 19615) [µM] | MIC relative to wild-type Gramicidin A [1] | apparent dissociation constant (Kd) / binding [2] | K+ release from LUVs [3] | MICs B. Subtilius ([4]; ATCC 663) [µM] | MIC relative to wild-type Gramicidin A [4] | KC50 (50% K+ ion leakage relative to 1% TritonX-100) [5] | peptide concentration for 50% K+ ion leakage, fold greater than wild-type Gramicidin A [5] | MICs S. Aureus ([6]; ATCC 6538) [µM] | MIC relative to wild-type Gramicidin A [6] | water solubility, fold higher than wild-type Gramicidin A [7] [fold] | Tb3+ leakage from LUVs [8] | Sat. Conc, Lys series [9] [µM] | reduced affinity to POPC vesicles [10] [folds] | haemoglobin leakage from hRBCs [11] | HC50 (50% haemoglobin leakage relative to 1% TritonX-100) ([11]; red cells of human) | other results |
| --- | --- | --- | --- | --- | --- | --- | --- | --- | --- | --- | --- | --- | --- | --- | --- | --- | --- |
| CC(C)C[C@@H](NC(=O)[C@H](C)NC(=O)CNC(=O)[C@@H](NC=O)C(C)C)C(=O)N[C@@H](C)C(=O)N[C@@H](C(=O)N[C@H](C(=O)N[C@@H](C(=O)N[C@@H](Cc1c[nH]c2ccccc12)C(=O)N[C@H](CCCCN)C(=O)N[C@@H](Cc1c[nH]c2ccccc12)C(=O)N[C@H](CCCCN)C(=O)N[C@@H](Cc1c[nH]c2ccccc12)C(=O)N[C@H](CC(C)C)C(=O)N[C@@H](Cc1c[nH]c2ccccc12)C(=O)NCCO)C(C)C)C(C)C)C(C)C (racemic) [gA-4, formyl-V-G-A-dL-A-dV-V-dV-W-dK-W-dK-W-dL-W-NHCH2CH2OH] | 0.16 | equivalent to or ˜2-fold higher | comparable to that of gA-WT | potent activity in K+ release | 2.5 | equivalent to or ˜2-fold higher | 5~10 μM | over 10^5 fold | 5 | equivalent to or ˜2-fold higher | ~740 | essentially no Tb3+ leakage; also recorded: behave similarly to gA-5 | 39 | ~70 | not enough to cause 50% haemoglobin leakage | >100 µM |  |
| CC(C)C[C@@H](NC(=O)[C@H](C)NC(=O)CNC(=O)[C@@H](NC=O)C(C)C)C(=O)N[C@@H](C)C(=O)N[C@@H](C(=O)N[C@H](C(=O)N[C@@H](C(=O)N[C@@H](Cc1c[nH]c2ccccc12)C(=O)N[C@H](CC(C)C)C(=O)N[C@@H](Cc1c[nH]c2ccccc12)C(=O)N[C@H](CC(C)C)C(=O)N[C@@H](Cc1c[nH]c2ccccc12)C(=O)N[C@H](CCCCN)C(=O)N[C@@H](Cc1c[nH]c2ccccc12)C(=O)NCCO)C(C)C)C(C)C)C(C)C (racemic) [gA-2, formyl-V-G-A-dL-A-dV-V-dV-W-dL-W-dL-W-dK-W-NHCH2CH2OH] | 0.16 | equivalent to that of wild-type Gramicidin A | apparent Kd values close to that of gA-WT |  | 5 | equivalent to that of wild-type Gramicidin A | 0.01 µM | ~100 fold | 2.5 | equivalent to that of wild-type Gramicidin A | ~200 |  | 11 |  |  | 5~10 μM | apparent dissociation constant (Kd) / binding ([10]; neutral POPC vesicles, in words): apparent Kd values close to that of gA-WT |
| CC(C)C[C@@H](NC(=O)[C@H](C)NC(=O)CNC(=O)[C@@H](NC=O)C(C)C)C(=O)N[C@@H](C)C(=O)N[C@@H](C(=O)N[C@H](C(=O)N[C@@H](C(=O)N[C@@H](Cc1c[nH]c2ccccc12)C(=O)N[C@H](CCCCN)C(=O)N[C@@H](Cc1c[nH]c2ccccc12)C(=O)N[C@H](CC(C)C)C(=O)N[C@@H](Cc1c[nH]c2ccccc12)C(=O)N[C@H](CCCCN)C(=O)N[C@@H](Cc1c[nH]c2ccccc12)C(=O)NCCO)C(C)C)C(C)C)C(C)C (racemic) [gA-3, formyl-V-G-A-dL-A-dV-V-dV-W-dK-W-dL-W-dK-W-NHCH2CH2OH] | 0.32 | ~2 fold | comparable to that of gA-WT | potent activity in K+ release | 5 | ~2 fold | 5~10 μM | greater than 10^5 fold | 5 | ~2 fold | ~740 | essentially no Tb3+ leakage; also recorded: behave similarly to gA-5 | 38 | ~70 | not enough to cause 50% haemoglobin leakage | >70 µM |  |
| CC(C)C[C@@H](NC(=O)[C@H](C)NC(=O)CNC(=O)[C@@H](NC=O)C(C)C)C(=O)N[C@@H](C)C(=O)N[C@@H](C(=O)N[C@H](C(=O)N[C@@H](C(=O)N[C@@H](Cc1c[nH]c2ccccc12)C(=O)N[C@H](CC(C)C)C(=O)N[C@@H](Cc1c[nH]c2ccccc12)C(=O)N[C@H](CC(C)C)C(=O)N[C@@H](Cc1c[nH]c2ccccc12)C(=O)N[C@H](CC(C)C)C(=O)N[C@@H](Cc1c[nH]c2ccccc12)C(=O)NCCO)C(C)C)C(C)C)C(C)C (racemic) [gA-WT, formyl-V-G-A-dL-A-dV-V-dV-W-dL-W-dL-W-dL-W-NHCH2CH2OH, reference compound] |  |  |  |  |  |  |  |  |  |  |  |  |  |  |  |  | MICs S. Pyogenes [1, 14]: 0.16 µM; Minimum Inhibition Concentration S. Pyogenesis ([1]; Table 6): 0.16 µM; MICs B. Subtilius [4, 14]: 2.5 µM; Minimum Inhibition Concentration B. Subtilius ([4]; Table 6): 2.5 µM; KC50 (50% K+ ion leakage relative to 1% TritonX-100) ([5]; Table 2, hRBCs): 0.00014 µM; Toxicity KC50 ([5]; Table 6, hRBCs, preliminary): 0.00014 µM; KC50 ([5]; hRBCs): 140 pM; MICs S. Aureus [6, 14]: 2.5 µM; Minimum Inhibition Concentration S. Aureus ([6]; Table 6): 2.5 µM; toxicity, cell survival (MTT) [12]: low μM potency; toxicity, cell survival (MTT) [13]: low μM potency; solubility in water ([9]; wild type, from reference [8]): < 0.05 µM; HC50 (50% haemoglobin leakage relative to 1% TritonX-100) ([11]; Table 2, hRBCs): 5 µM; Toxicity HC50 ([11]; Table 6, hRBCs, preliminary): 5 µM; HC50 ([11]; Table 8): 5 |
